Measured values reported in patent publication US10626116B2, “Crystalline form of BTK kinase inhibitor and preparation method thereof” (Jiangsu Hengrui Medicine Co., Ltd., priority 2016, dated 2020).

Legend:
[1] = Stability under lighting, heating and high humidity; purity detected by HPLC; format: physicochemical; details: for Purity by HPLC, 40° C.: heating 40° C.; for Purity by HPLC, 40° C. / Purity by HPLC, 60° C. / Purity by HPLC, RH 75% / Purity by HPLC, RH 90% / Purity by HPLC, Lighting: spread flat in the air; for Purity by HPLC, 60° C.: heating 60° C.; for Purity by HPLC, RH 75%: high humidity RH 75%; for Purity by HPLC, RH 90%: high humidity RH 90%; for Purity by HPLC, Lighting: lighting 4500 Lux
Method: The sample of amorphous form prepared in Example 1 and the sample of crystal form I prepared in Example 2 were spread flat in the air to test their stability under conditions of lighting (4500 Lux), heating (40° C., 60° C.), and high humidity (RH 75%, RH 90%), respectively. Samplings were carried out on Day 5 and Day 10.

[2] = Special stability study of crystal form I (grinding, heating, tableting); format: physicochemical
Text: Crystal form I of the compound of formula (I) prepared according to the method of Example 2 was ground, heated and tableted.

[3] = Grinding treatment for 10 minutes in a mortar under nitrogen atmosphere, batch 20150427G
[4] = Heating treatment for 3 hours at 80° C., batch 20150427H
[5] = Tableting treatment, batch 20150427P

Structure (SMILES)	Purity by HPLC, 40° C. ([1]; Day 0) [%]	Purity by HPLC, 40° C. ([1]; Day 5) [%]	Purity by HPLC, 40° C. ([1]; Day 10) [%]	Purity by HPLC, 60° C. ([1]; Day 0) [%]	Purity by HPLC, 60° C. ([1]; Day 5) [%]	Purity by HPLC, 60° C. ([1]; Day 10) [%]	Purity by HPLC, RH 75% ([1]; Day 0) [%]	Purity by HPLC, RH 75% ([1]; Day 5) [%]	Purity by HPLC, RH 75% ([1]; Day 10) [%]	Purity by HPLC, RH 90% ([1]; Day 0) [%]	Purity by HPLC, RH 90% ([1]; Day 5) [%]	Purity by HPLC, RH 90% ([1]; Day 10) [%]	Purity by HPLC, Lighting ([1]; Day 0) [%]	Purity by HPLC, Lighting ([1]; Day 5) [%]	Purity by HPLC, Lighting ([1]; Day 10) [%]	other results
CC#CC(=O)N1CC[C@@H](n2cc(-c3ccc(Oc4c(F)cccc4F)cc3)c3c(N)n[nH]c(=O)c32)C1 [Crystal form I, (R)-4-amino-1-(1-(but-2-ynoyl)pyrrolidin-3-yl)-3-(4-(2,6-difluorophenoxy)phenyl)-1H-pyrrolo[2,3-d]pyridazin-7(6H)-one]	99.21	99.28	99.35	99.21	99.26	99.25	99.21	99.30	99.25	99.21	99.30	99.32	99.21	99.26	99.25	Stability compared with the amorphous sample ([1]; conditions of lighting, high temperature and high humidity): significantly better than that of the amorphous sample; Crystal form after treatment [2, 3]: Crystal; DSC peak after treatment [2, 3]: 239.32 °C; Crystal form after treatment [2, 4]: Crystal; DSC peak after treatment [2, 4]: 238.98 °C; Crystal form after treatment [2, 5]: Crystal; DSC peak after treatment [2, 5]: 241.19 °C; Stability of the crystal form ([2]; ground, heated and tableted (grinding, pressure and heating)): stable
CC#CC(=O)N1CC[C@@H](n2cc(-c3ccc(Oc4c(F)cccc4F)cc3)c3c(N)n[nH]c(=O)c32)C1 [Amorphous form, (R)-4-amino-1-(1-(but-2-ynoyl)pyrrolidin-3-yl)-3-(4-(2,6-difluorophenoxy)phenyl)-1H-pyrrolo[2,3-d]pyridazin-7(6H)-one]	97.70	97.64	97.57	97.70	97.68	97.52	97.70	97.52	97.59	97.70	97.50	97.48	97.70	97.67	97.62	–
